Measured values taken from ChEMBL document CHEMBL4834397 (J Med Chem, 2021).
In brackets after ≈: the same amount, converted by molar mass. Values belong to the compound of their own block, whether it stands above or below them.

Legend:
[1] = Solubility of compound in aqueous buffer at pH 6.8 by HPLC analysis; format: physicochemical
[2] = Half life in rat liver microsomes in presence of NADPH; format: ADME, Microsome
[3] = target: Voltage-gated inwardly rectifying potassium channel KCNH2 (Homo sapiens, UniProt Q12809); assay: Displacement of [3H]dofetilide from recombinant human ERG stably expressed in HEK293 cell membranes measured after 90 mins by microbeta liquid scintillation counting method; set-up: species or system Cell membrane
Sequence of Voltage-gated inwardly rectifying potassium channel KCNH2 (Q12809 whole entry): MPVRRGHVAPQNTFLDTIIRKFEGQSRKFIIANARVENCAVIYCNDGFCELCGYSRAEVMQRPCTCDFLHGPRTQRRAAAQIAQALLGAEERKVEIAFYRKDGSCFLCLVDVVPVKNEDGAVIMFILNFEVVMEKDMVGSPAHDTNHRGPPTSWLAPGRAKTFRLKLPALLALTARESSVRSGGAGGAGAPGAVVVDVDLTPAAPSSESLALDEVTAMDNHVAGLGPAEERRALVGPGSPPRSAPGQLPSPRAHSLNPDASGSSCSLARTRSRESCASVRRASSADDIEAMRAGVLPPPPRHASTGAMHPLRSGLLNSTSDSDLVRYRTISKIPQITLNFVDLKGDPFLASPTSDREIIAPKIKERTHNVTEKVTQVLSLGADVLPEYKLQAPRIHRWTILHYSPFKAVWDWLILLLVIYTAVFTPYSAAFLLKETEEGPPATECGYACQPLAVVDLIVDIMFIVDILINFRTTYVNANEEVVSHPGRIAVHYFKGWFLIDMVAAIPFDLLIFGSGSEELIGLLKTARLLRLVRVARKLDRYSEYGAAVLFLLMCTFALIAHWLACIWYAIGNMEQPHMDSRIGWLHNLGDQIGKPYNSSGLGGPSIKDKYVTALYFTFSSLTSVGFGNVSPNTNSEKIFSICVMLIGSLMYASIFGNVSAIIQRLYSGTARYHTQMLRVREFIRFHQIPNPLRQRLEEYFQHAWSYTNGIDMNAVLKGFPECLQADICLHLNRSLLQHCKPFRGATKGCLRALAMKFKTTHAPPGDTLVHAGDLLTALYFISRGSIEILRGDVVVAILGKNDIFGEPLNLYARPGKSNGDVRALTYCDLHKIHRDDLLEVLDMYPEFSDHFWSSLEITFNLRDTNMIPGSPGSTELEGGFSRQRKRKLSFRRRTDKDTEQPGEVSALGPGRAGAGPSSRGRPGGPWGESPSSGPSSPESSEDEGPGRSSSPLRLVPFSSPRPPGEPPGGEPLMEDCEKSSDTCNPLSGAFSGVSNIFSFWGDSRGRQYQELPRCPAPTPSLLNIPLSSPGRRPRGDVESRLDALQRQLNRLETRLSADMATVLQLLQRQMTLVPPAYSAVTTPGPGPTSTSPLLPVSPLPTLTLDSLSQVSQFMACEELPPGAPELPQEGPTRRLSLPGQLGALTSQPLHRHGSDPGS

Cytochrome P450 2D6 = Cytochrome P450 2D6 (Homo sapiens, UniProt P10635); assay: Reversible inhibition of CYP2D6 in human liver microsomes using […] as substrate incubated for 10 mins in presence of NADPH by LC-MS analysis; format: ADME
Sequence of Cytochrome P450 2D6 (P10635 whole entry): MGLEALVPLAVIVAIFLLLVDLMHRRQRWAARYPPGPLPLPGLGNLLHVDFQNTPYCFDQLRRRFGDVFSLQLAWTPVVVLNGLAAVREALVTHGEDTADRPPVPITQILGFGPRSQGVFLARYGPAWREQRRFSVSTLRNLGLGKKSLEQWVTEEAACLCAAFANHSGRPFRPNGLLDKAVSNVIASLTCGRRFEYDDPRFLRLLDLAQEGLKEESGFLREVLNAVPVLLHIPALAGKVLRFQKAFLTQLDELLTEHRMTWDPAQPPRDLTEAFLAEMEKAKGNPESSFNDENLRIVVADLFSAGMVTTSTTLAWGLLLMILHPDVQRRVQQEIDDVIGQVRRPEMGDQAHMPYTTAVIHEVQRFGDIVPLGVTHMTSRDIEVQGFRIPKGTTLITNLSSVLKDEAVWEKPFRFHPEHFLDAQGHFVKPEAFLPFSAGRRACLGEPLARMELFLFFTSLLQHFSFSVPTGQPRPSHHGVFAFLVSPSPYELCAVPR

Cytochrome P450 2C9 = Cytochrome P450 2C9 (Homo sapiens, UniProt P11712); assay: Reversible inhibition of CYP2C9 in human liver microsomes using […] as substrate incubated for 10 mins in presence of NADPH by LC-MS analysis; format: ADME
Sequence of Cytochrome P450 2C9 (P11712 whole entry): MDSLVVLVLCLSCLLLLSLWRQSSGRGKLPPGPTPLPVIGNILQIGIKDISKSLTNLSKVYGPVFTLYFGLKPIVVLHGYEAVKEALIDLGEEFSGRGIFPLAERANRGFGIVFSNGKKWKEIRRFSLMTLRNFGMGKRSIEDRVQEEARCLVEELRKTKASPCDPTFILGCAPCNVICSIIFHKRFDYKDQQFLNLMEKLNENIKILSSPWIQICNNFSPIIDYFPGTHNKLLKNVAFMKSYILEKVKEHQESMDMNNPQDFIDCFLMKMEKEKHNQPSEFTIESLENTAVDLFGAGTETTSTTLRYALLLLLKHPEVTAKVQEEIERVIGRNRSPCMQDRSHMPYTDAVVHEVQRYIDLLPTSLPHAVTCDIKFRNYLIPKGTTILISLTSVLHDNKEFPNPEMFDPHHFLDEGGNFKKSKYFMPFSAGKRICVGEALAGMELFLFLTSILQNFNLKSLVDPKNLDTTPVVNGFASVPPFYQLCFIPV

Cytochrome P450 3A5 = Cytochrome P450 3A5 (Homo sapiens, UniProt P20815); assay: Reversible inhibition of CYP3A5 in human liver microsomes using midazolam as substrate incubated for 10 mins in presence of NADPH by LC-MS analysis; format: ADME
Sequence of Cytochrome P450 3A5 (P20815 whole entry): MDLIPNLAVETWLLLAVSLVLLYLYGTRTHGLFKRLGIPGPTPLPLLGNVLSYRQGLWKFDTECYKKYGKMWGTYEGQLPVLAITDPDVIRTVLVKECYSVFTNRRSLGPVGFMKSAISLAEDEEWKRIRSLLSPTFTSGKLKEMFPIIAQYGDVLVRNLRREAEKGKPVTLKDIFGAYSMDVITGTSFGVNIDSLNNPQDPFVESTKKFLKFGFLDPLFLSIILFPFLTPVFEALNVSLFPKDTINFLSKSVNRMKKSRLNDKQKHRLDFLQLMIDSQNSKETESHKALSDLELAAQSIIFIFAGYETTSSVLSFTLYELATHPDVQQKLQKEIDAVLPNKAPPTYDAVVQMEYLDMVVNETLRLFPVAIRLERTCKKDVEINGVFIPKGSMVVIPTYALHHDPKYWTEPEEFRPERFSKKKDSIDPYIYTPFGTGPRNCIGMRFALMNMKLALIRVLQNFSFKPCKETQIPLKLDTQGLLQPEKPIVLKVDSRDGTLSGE

[4] = target: T1, Leukotriene A-4 hydrolase (Homo sapiens, UniProt P09960); assay: Inhibition of LTA4H in human whole blood assessed as reduction of calcium ionophore A23187-stimulated LTB4 generation preincubated for 4 hrs followed by ionophore stimulation and measured after 15 hrs by EIA assay; format: tissue-based
T1 sequence (P09960 whole entry): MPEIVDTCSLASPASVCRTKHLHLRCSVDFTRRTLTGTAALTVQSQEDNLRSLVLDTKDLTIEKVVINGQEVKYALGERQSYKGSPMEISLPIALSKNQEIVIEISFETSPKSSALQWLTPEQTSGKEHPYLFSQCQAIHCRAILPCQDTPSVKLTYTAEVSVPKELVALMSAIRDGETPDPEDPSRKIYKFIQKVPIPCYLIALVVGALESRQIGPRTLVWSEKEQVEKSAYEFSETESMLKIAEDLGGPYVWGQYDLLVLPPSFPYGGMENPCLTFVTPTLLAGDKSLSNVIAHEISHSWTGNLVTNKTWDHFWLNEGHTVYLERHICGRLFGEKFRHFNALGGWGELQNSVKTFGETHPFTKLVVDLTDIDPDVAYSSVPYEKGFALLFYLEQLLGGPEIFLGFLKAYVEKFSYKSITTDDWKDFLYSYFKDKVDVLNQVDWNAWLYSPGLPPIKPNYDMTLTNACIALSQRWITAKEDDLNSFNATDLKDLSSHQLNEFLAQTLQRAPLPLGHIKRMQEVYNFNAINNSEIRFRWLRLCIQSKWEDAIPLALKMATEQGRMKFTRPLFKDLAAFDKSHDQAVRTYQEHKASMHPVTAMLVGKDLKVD

[5] = target: T2, Leukotriene A-4 hydrolase (Homo sapiens) (UniProt P09960); details: PBMC, time 6.0 hrs
T2 sequence (whole entry): T1 sequence (P09960 whole entry)

[6] = target: T2, Leukotriene A-4 hydrolase (Homo sapiens); details: Blood, time 19.0 hrs
[7] = target: T1, Leukotriene A-4 hydrolase; assay: Inhibition of LTA4H in human PBMC assessed as reduction of calcium ionophore A23187-stimulated LTB4 generation preincubated for 4 hrs followed by ionophore stimulation and measured after 2 hrs by EIA assay; format: tissue-based
[8] = target: T1, Leukotriene A-4 hydrolase; assay: (§1) Inhibition of recombinant full length N-terminal His6-tagged LTA4H (unknown origin) expressed in Escherichia coli BL21 DE3 cells at enzyme concentration <1 nM using Arg-AMC as substrate preincubated for 15 mins followed by substrate addition and measured every 10 mins for 300 mins by fluorescence based assay
[9] = target: T2, Leukotriene A-4 hydrolase (Homo sapiens); details: dose 125.0 µM, time 30.0 min
[10] = target: T1, Leukotriene A-4 hydrolase; assay: as §1, with “9” for “<1”
[11] = target: T2, Leukotriene A-4 hydrolase (Homo sapiens); details: dose 1000.0 µM, time 30.0 min
[12] = target: T2, Leukotriene A-4 hydrolase (Homo sapiens); details: dose 250.0 µM, time 30.0 min
[13] = target: T2, Leukotriene A-4 hydrolase (Homo sapiens); details: dose 500.0 µM, time 30.0 min
[14] = Drug concentration in plasma isolated from C57/BL6 mouse at 10 mg/kg, po BID for 3 days measured after 2 hrs post last dose; format: ADME, organism-based; details: time 3 day
[15] = Drug concentration in plasma isolated from C57/BL6 mouse at 10 mg/kg, po BID for 3 days measured after 14 hrs post last dose; format: ADME, organism-based; details: time 3 day
[16] = Drug concentration in blood isolated from C57/BL6 mouse at 0.625 mg/kg, po BID for 3 days measured after 14 hrs post last dose; format: ADME, organism-based; details: time 3 day, read-out: Ct
[17] = Drug concentration in plasma isolated from C57/BL6 mouse at 0.625 mg/kg, po BID for 3 days measured after 2 hrs post last dose; format: ADME, organism-based; details: time 3 day
[18] = Drug concentration in blood isolated from C57/BL6 mouse at […], po BID for 3 days measured after 2 hrs post last dose; format: ADME, organism-based; details: dose 2.5 mg/kg, time 3 day, read-out: Ct
[19] = Drug concentration in blood isolated from C57/BL6 mouse at 10 mg/kg, po BID for 3 days measured after 2 hrs post last dose; format: ADME, organism-based; details: time 3 day, read-out: Ct
[20] = Drug concentration in plasma isolated from C57/BL6 mouse at 0.625 mg/kg, po BID for 3 days measured after 14 hrs post last dose; format: ADME, organism-based; details: time 3 day
[21] = Drug concentration in blood isolated from C57/BL6 mouse at […], po BID for 3 days measured after 14 hrs post last dose; format: ADME, organism-based; details: dose 2.5 mg/kg, time 3 day, read-out: Ct
[22] = Drug concentration in blood isolated from C57/BL6 mouse at 10 mg/kg, po BID for 3 days measured after 14 hrs post last dose; format: ADME, organism-based; details: time 3 day, read-out: Ct
[23] = Drug concentration in plasma isolated from C57/BL6 mouse at […], po BID for 3 days measured after 14 hrs post last dose; format: ADME, organism-based; details: dose 2.5 mg/kg, time 3 day
[24] = Drug concentration in blood isolated from C57/BL6 mouse at 0.625 mg/kg, po BID for 3 days measured after 2 hrs post last dose; format: ADME, organism-based; details: time 3 day, read-out: Ct
[25] = Drug concentration in plasma isolated from C57/BL6 mouse at […], po BID for 3 days measured after 2 hrs post last dose; format: ADME, organism-based; details: dose 2.5 mg/kg, time 3 day

Structure (SMILES): C[C@H](Cc1ccccc1)Oc1ccc(-c2nnn(C[C@@H](N)CC(=O)O)n2)cc1
solubility [1]: 391 µM (≈ 149 µg/mL)

Structure (SMILES): C[C@H](CN)n1nnc(-c2ccc(Oc3ccc(Cl)cc3)cc2)n1
IC50 [3]: > 30 µM | IC50 (Cytochrome P450 2D6): 11 µM | IC50 (Cytochrome P450 2C9): 2 µM | half-life [2]: 15 min | IC50 (Cytochrome P450 3A5): > 20 µM

Structure (SMILES): C[C@@H](N)Cn1nnc(-c2ccc(Oc3ccc(Cl)cc3)cc2)n1
IC50 [3]: > 30 µM | IC50 (Cytochrome P450 2D6): > 20 µM | IC50 (Cytochrome P450 2C9): > 20 µM | half-life [2]: 33 min | IC50 (Cytochrome P450 3A5): > 20 µM

Structure (SMILES): Cc1ccc(Oc2ccc(-c3nnn(CCN)n3)cc2)cc1
IC50 [3]: 5.8 µM | IC50 (Cytochrome P450 2D6): 14 µM | IC50 (Cytochrome P450 2C9): 1.4 µM | half-life [2]: 5 min | IC50 (Cytochrome P450 3A5): > 20 µM

Structure (SMILES): N[C@H](CC(=O)O)Cn1nnc(-c2ccc(Oc3ccc(F)cc3)cc2)n1
solubility [1]: 135 µM (≈ 48.2 µg/mL)

Structure (SMILES): CC(=O)N[C@H]1C[C@H]2CC[C@@H](C1)N2Cc1ccc(Oc2nc3ncccc3s2)cc1
IC50 [4]: 0.048 µM | IC90 [5]: 0.092 µM | IC90 [6]: 0.104 µM | IC50 [7]: 0.018 µM | IC50 [8]: 0.0019 µM

Structure (SMILES): COc1cnc(Oc2ccc(-c3nnn(C[C@H](N)CC(=O)O)n3)cc2)nc1
solubility [1]: > 1000 µM

Structure (SMILES): OCc1ccc(Oc2ccccc2)cc1
ΔTm [9]: 0.08 °C | IC50 [10]: 4.5 µM | ΔTm [11]: 0.3 °C | ΔTm [12]: 0.2 °C | ΔTm [13]: 0.2 °C

Structure (SMILES): N[C@@H](CC(=O)O)Cn1nnc(-c2ccc(Oc3nc4ccccc4s3)cc2)n1
solubility [1]: 35 µM (≈ 13.9 µg/mL)

Structure (SMILES): CCCCCOc1ccc(-c2nnn(C[C@H](N)CC(=O)O)n2)cc1
solubility [1]: 65 µM (≈ 21.7 µg/mL)

Structure (SMILES): N[C@H](CC(=O)O)Cn1nnc(-c2ccc(OCCc3ccccc3)cc2)n1
solubility [1]: 23 µM (≈ 8.45 µg/mL)

Structure (SMILES): N[C@@H](CC(=O)O)Cn1nnc(-c2ccc(COCc3ccccc3)cc2)n1
solubility [1]: 166 µM (≈ 61 µg/mL)

Structure (SMILES): O=C(O)c1ccc(CN2C[C@@H]3C[C@H]2CN3Cc2ccc(Oc3ccc(-c4ncco4)cc3)cc2)cc1 [ACEBILUSTAT]
concentration at 72 h [14]: 14600 nM | concentration at 72 h [15]: 826 nM | concentration at 72 h [16]: 32 nM | concentration at 72 h [17]: 597 nM | concentration at 72 h [18]: 1860 nM | concentration at 72 h [19]: 7620 nM | concentration at 72 h [20]: 9 nM | IC50 [4]: 0.142 µM | concentration at 72 h [21]: 166 nM | IC90 [5]: 0.181 µM | IC90 [6]: 0.728 µM | IC50 [7]: 0.024 µM | concentration at 72 h [22]: 554 nM | concentration at 72 h [23]: 94 nM | concentration at 72 h [24]: 488 nM | concentration at 72 h [25]: 3820 nM | IC50 [8]: 0.0049 µM

Structure (SMILES): N[C@H](CC(=O)O)Cn1nnc(-c2ccc(Oc3ccc(-c4ncco4)cc3)cc2)n1
solubility [1]: 17 µM (≈ 6.91 µg/mL)

Structure (SMILES): NCCn1nnc(-c2ccc(Oc3ccc(Cl)cc3)cc2)n1
half-life [2]: 15 min

Structure (SMILES): N[C@H](CC(=O)O)Cn1nnc(-c2ccc(Oc3nc4ccccc4s3)cc2)n1
solubility [1]: 23 µM (≈ 9.12 µg/mL)

Structure (SMILES): N[C@H](CC(=O)O)Cn1nnc(-c2ccc(Oc3ncc(Cl)cc3F)cc2)n1
solubility [1]: 398 µM (≈ 156 µg/mL)

Structure (SMILES): N[C@H](CC(=O)O)Cn1nnc(-c2ccc(Oc3ccc(Cl)cn3)cc2)n1
solubility [1]: 344 µM (≈ 129 µg/mL)

Second part, led by results:

half-life [2]: 190 min | solubility [1]: 26 µM (≈ 9.72 µg/mL)
Structure (SMILES): N[C@@H](CC(=O)O)Cn1nnc(-c2ccc(Oc3ccc(Cl)cc3)cc2)n1

half-life [2]: > 55 min
Structure (SMILES): N[C@@H](Cn1nnc(-c2ccc(Oc3ccc(Cl)cc3)cc2)n1)C(=O)O

IC50 (Cytochrome P450 2D6): > 20 µM | IC50 (Cytochrome P450 2C9): > 20 µM | half-life [2]: 30 min | IC50 (Cytochrome P450 3A5): > 20 µM
Structure (SMILES): NCCCn1nnc(-c2ccc(Oc3ccc(Cl)cc3)cc2)n1
IC50 [3]: 4.8 µM

half-life [2]: 142 min
Structure (SMILES): O=C(O)CNCCn1nnc(-c2ccc(Oc3ccc(Cl)cc3)cc2)n1

IC50 (Cytochrome P450 2D6): > 20 µM | IC50 (Cytochrome P450 2C9): > 20 µM | half-life [2]: 114 min | IC50 (Cytochrome P450 3A5): > 20 µM
Structure (SMILES): O=C(O)CCn1nnc(-c2ccc(Oc3ccc(Cl)cc3)cc2)n1
IC50 [3]: > 30 µM

IC50 (Cytochrome P450 2D6): > 20 µM | IC50 (Cytochrome P450 2C9): > 20 µM | half-life [2]: > 55 min | IC50 (Cytochrome P450 3A5): > 20 µM
Structure (SMILES): CC(=O)NCCn1nnc(-c2ccc(Oc3ccc(Cl)cc3)cc2)n1
IC50 [3]: > 30 µM

IC50 (Cytochrome P450 2D6): > 20 µM | IC50 (Cytochrome P450 2C9): > 20 µM | half-life [2]: 405 min | IC50 (Cytochrome P450 3A5): > 20 µM
Structure (SMILES): O=C(O)CCCn1nnc(-c2ccc(Oc3ccc(Cl)cc3)cc2)n1
IC50 [3]: > 30 µM

IC90 [5]: 1.07 µM | IC90 [6]: 5.05 µM
Structure (SMILES): O=C(O)CCCN1CCC[C@H]1COc1ccc(Oc2ccc(Cl)cc2)cc1

half-life [2]: 240 min | solubility [1]: 28 µM (≈ 10.5 µg/mL)
Structure (SMILES): N[C@H](CC(=O)O)Cn1nnc(-c2ccc(Oc3ccc(Cl)cc3)cc2)n1
